Laboratory results as given in patent publication US20230085307A1, “PYRIDAZINONE COMPOUND AND HERBICIDE” (NISSAN CHEMICAL CORPORATION, priority 2019, published 2023).

Legend:
chickweed [1] = test: Test Example 5: herbicidal effect by foliage application, plastic box (Table 20, symbol P); format: in vivo, common chickweed (Stellaria media); conditions: foliage application
Procedure, shortened: (§1)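 Sow seeds spot-wise in sterilized diluvial soil; cover with ~1.5 cm soil. Grow 14 days in greenhouse, 25° C. to 30° C. Spray foliage with emulsion diluted to predetermined amount. Rate effect after 3 weeks.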

rice flat sedge = test: Test Example 3: herbicidal effect by foliage application, Wagner pot (Table 18, symbol E); format: in vivo, rice flat sedge (Cyperus iria)
Procedure, shortened: (§2)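 Plants were sown in alluvial soil held under 0.1–0.5 cm standing water and grown 14 days in a greenhouse at 25–30 °C. An emulsifiable formulation, water-diluted to the set dose, was then sprayed onto the foliage, and effects were scored three weeks later using previously defined criteria.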

velvetleaf [2] = test: Test Example 4: herbicidal effect by soil treatment (Table 19, symbol M); format: in vivo, velvetleaf (Abutilon theophrasti); conditions: amount of applied herbicide 320 g/ha
Procedure, shortened: (§3)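 Soil-surface application: an emulsion agent diluted with water to the predetermined dose is sprayed uniformly over seeds lying under roughly 1.5 cm of sterilized diluvial soil. Boxes stay in a greenhouse at 25° C. to 30° C. Three weeks later, each species is graded on previously defined criteria.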

southern crabgrass [3] = test: Test Example 5: herbicidal effect by foliage application, plastic box (Table 20, symbol F); format: in vivo, southern crabgrass (Digitaria ciliaris); conditions: foliage application
Procedure, shortened: as §1

Italian ryegrass [4] = test: Test Example 4: herbicidal effect by soil treatment (Table 19, symbol K); format: in vivo, Italian ryegrass (Lolium multiflorum); conditions: amount of applied herbicide 320 g/ha
Procedure, shortened: as §3

windgrass [5] = test: Test Example 4: herbicidal effect by soil treatment (Table 19, symbol L); format: in vivo, windgrass (Apera spica-venti); conditions: amount of applied herbicide 320 g/ha
Procedure, shortened: as §3

windgrass [6] = test: Test Example 5: herbicidal effect by foliage application, plastic box (Table 20, symbol L); format: in vivo, windgrass (Apera spica-venti); conditions: foliage application
Procedure, shortened: as §1

barnyard grass [7] = test: Test Example 3: herbicidal effect by foliage application, Wagner pot (Table 18, symbol H); format: in vivo, barnyard grass (Echinochloa crus-galli)
Procedure, shortened: as §2

redroot pigweed [8] = test: Test Example 5: herbicidal effect by foliage application, plastic box (Table 20, symbol N); format: in vivo, redroot pigweed (Amaranthus retroflexus); conditions: foliage application
Procedure, shortened: as §1

barnyard grass [9] = test: Test Example 5: herbicidal effect by foliage application, plastic box (Table 20, symbol H); format: in vivo, barnyard grass (Echinochloa crus-galli); conditions: foliage application
Procedure, shortened: as §1

persian speedwell [10] = test: Test Example 4: herbicidal effect by soil treatment (Table 19, symbol R); format: in vivo, Persian speedwell (Veronica persica); conditions: amount of applied herbicide 320 g/ha
Procedure, shortened: as §3

persian speedwell [11] = test: Test Example 5: herbicidal effect by foliage application, plastic box (Table 20, symbol R); format: in vivo, Persian speedwell (Veronica persica); conditions: foliage application
Procedure, shortened: as §1

southern crabgrass [12] = test: Test Example 4: herbicidal effect by soil treatment (Table 19, symbol F); format: in vivo, southern crabgrass (Digitaria ciliaris); conditions: amount of applied herbicide 320 g/ha
Procedure, shortened: as §3

green foxtail [13] = test: Test Example 5: herbicidal effect by foliage application, plastic box (Table 20, symbol G); format: in vivo, green foxtail (Setaria viridis); conditions: foliage application
Procedure, shortened: as §1

redroot pigweed [14] = test: Test Example 4: herbicidal effect by soil treatment (Table 19, symbol N); format: in vivo, redroot pigweed (Amaranthus retroflexus); conditions: amount of applied herbicide 320 g/ha
Procedure, shortened: as §3

velvetleaf [15] = test: Test Example 5: herbicidal effect by foliage application, plastic box (Table 20, symbol M); format: in vivo, velvetleaf (Abutilon theophrasti); conditions: foliage application
Procedure, shortened: as §1

lambsquarters [16] = test: Test Example 5: herbicidal effect by foliage application, plastic box (Table 20, symbol O); format: in vivo, lambsquarters (Chenopodium album); conditions: foliage application
Procedure, shortened: as §1

Chinese sprangletop = test: Test Example 3: herbicidal effect by foliage application, Wagner pot (Table 18, symbol D); format: in vivo, chinese sprangletop (Leptochloa chinensis)
Procedure, shortened: as §2

green foxtail [17] = test: Test Example 4: herbicidal effect by soil treatment (Table 19, symbol G); format: in vivo, green foxtail (Setaria viridis); conditions: amount of applied herbicide 320 g/ha
Procedure, shortened: as §3

wild oat [18] = test: Test Example 5: herbicidal effect by foliage application, plastic box (Table 20, symbol I); format: in vivo, wild oat (Avena fatua); conditions: foliage application
Procedure, shortened: as §1

wild oat [19] = test: Test Example 4: herbicidal effect by soil treatment (Table 19, symbol I); format: in vivo, wild oat (Avena fatua); conditions: amount of applied herbicide 320 g/ha
Procedure, shortened: as §3

blackgrass [20] = test: Test Example 4: herbicidal effect by soil treatment (Table 19, symbol J); format: in vivo, blackgrass (Alopecurus myosuroides); conditions: amount of applied herbicide 320 g/ha
Procedure, shortened: as §3

Italian ryegrass [21] = test: Test Example 5: herbicidal effect by foliage application, plastic box (Table 20, symbol K); format: in vivo, Italian ryegrass (Lolium multiflorum); conditions: foliage application
Procedure, shortened: as §1

chickweed [22] = test: Test Example 4: herbicidal effect by soil treatment (Table 19, symbol P); format: in vivo, common chickweed (Stellaria media); conditions: amount of applied herbicide 320 g/ha
Procedure, shortened: as §3

blackgrass [23] = test: Test Example 5: herbicidal effect by foliage application, plastic box (Table 20, symbol J); format: in vivo, blackgrass (Alopecurus myosuroides); conditions: foliage application
Procedure, shortened: as §1

lambsquarters [24] = test: Test Example 4: herbicidal effect by soil treatment (Table 19, symbol O); format: in vivo, lambsquarters (Chenopodium album); conditions: amount of applied herbicide 320 g/ha
Procedure, shortened: as §3

barnyard grass [25] = test: Test Example 4: herbicidal effect by soil treatment (Table 19, symbol H); format: in vivo, barnyard grass (Echinochloa crus-galli); conditions: amount of applied herbicide 320 g/ha
Procedure, shortened: as §3

[26] = AAH 320 g/ha, evaluated three weeks after application
[27] = amount of applied herbicide 320 g/ha
[28] = 320 g/ha, three weeks after application

SMILES: CCCC(=O)Oc1c(C)nn(C)c(=O)c1-c1c(-c2ccc(F)cc2F)sc2ccc(F)cc12 [2-343]
- P: chickweed, herbicidal effect (criteria 0-5) (chickweed [1]; [26]): 5 (Herbicidal rate of 90% or more (almost completely withered))
- herbicidal effect on E: rice flat sedge (rice flat sedge; [27]): 4 (Herbicidal rate of 70% or more and less than 90%)
- herbicidal effect on M: velvetleaf (velvetleaf [2]): 3 (Herbicidal rate of 40% or more and less than 70%)
- F: southern crabgrass, herbicidal effect (criteria 0-5) (southern crabgrass [3]; [26]): 5 (Herbicidal rate of 90% or more (almost completely withered))
- herbicidal effect on K: Italian ryegrass (Italian ryegrass [4]): 5 (Herbicidal rate of 90% or more (almost completely withered))
- herbicidal effect on L: windgrass (windgrass [5]): 3 (Herbicidal rate of 40% or more and less than 70%)
- L: windgrass, herbicidal effect (criteria 0-5) (windgrass [6]; [26]): 5 (Herbicidal rate of 90% or more (almost completely withered))
- herbicidal effect on H: barnyard grass (barnyard grass [7]; [27]): 5 (Herbicidal rate of 90% or more (almost completely withered))
- N: redroot pigweed, herbicidal effect (criteria 0-5) (redroot pigweed [8]; [26]): 5 (Herbicidal rate of 90% or more (almost completely withered))
- H: barnyard grass, herbicidal effect (criteria 0-5) (barnyard grass [9]; [26]): 3 (Herbicidal rate of 40% or more and less than 70%)
- herbicidal effect on R: persian speedwell (persian speedwell [10]): 5 (Herbicidal rate of 90% or more (almost completely withered))
- R: persian speedwell, herbicidal effect (criteria 0-5) (persian speedwell [11]; [26]): 5 (Herbicidal rate of 90% or more (almost completely withered))
- herbicidal effect on F: southern crabgrass (southern crabgrass [12]): 3 (Herbicidal rate of 40% or more and less than 70%)
- G: green foxtail, herbicidal effect (criteria 0-5) (green foxtail [13]; [26]): 5 (Herbicidal rate of 90% or more (almost completely withered))
- herbicidal effect on N: redroot pigweed (redroot pigweed [14]): 3 (Herbicidal rate of 40% or more and less than 70%)
- M: velvetleaf, herbicidal effect (criteria 0-5) (velvetleaf [15]; [26]): 5 (Herbicidal rate of 90% or more (almost completely withered))
- O: lambsquarters, herbicidal effect (criteria 0-5) (lambsquarters [16]; [26]): 4 (Herbicidal rate of 70% or more and less than 90%)
- herbicidal effect on D: Chinese sprangletop (Chinese sprangletop; [27]): 5 (Herbicidal rate of 90% or more (almost completely withered))
- herbicidal effect on G: green foxtail (green foxtail [17]): 4 (Herbicidal rate of 70% or more and less than 90%)
- I: wild oat, herbicidal effect (criteria 0-5) (wild oat [18]; [26]): 3 (Herbicidal rate of 40% or more and less than 70%)
- herbicidal effect on I: wild oat (wild oat [19]): 2 (Herbicidal rate of 20% or more and less than 40%)
- herbicidal effect on J: blackgrass (blackgrass [20]): 2 (Herbicidal rate of 20% or more and less than 40%)
- K: Italian ryegrass, herbicidal effect (criteria 0-5) (Italian ryegrass [21]; [26]): 5 (Herbicidal rate of 90% or more (almost completely withered))
- herbicidal effect on P: chickweed (chickweed [22]): 3 (Herbicidal rate of 40% or more and less than 70%)
- J: blackgrass, herbicidal effect (criteria 0-5) (blackgrass [23]; [26]): 4 (Herbicidal rate of 70% or more and less than 90%)
- herbicidal effect on O: lambsquarters (lambsquarters [24]): 2 (Herbicidal rate of 20% or more and less than 40%)
- herbicidal effect on H: barnyard grass (barnyard grass [25]): 3 (Herbicidal rate of 40% or more and less than 70%)

SMILES: CCCC(=O)Oc1c(C)nn(C)c(=O)c1-c1c(-c2ccc(OCC)nc2)sc2ccccc12 [1-077]
- herbicidal effect grade, P: chickweed (chickweed [1]; [28]): 3 (Herbicidal rate of 40% or more and less than 70%)
- herbicidal effect on E (rice flat sedge), rating 0-5 (rice flat sedge; 320 g/ha): 4 (Herbicidal rate of 70% or more and less than 90%)
- herbicidal effect rating, M: velvetleaf (velvetleaf [2]): 0 (Herbicidal rate of 5% or less (almost no effect))
- herbicidal effect grade, F: southern crabgrass (southern crabgrass [3]; [28]): 0 (Herbicidal rate of 5% or less (almost no effect))
- herbicidal effect rating, K: Italian ryegrass (Italian ryegrass [4]): 0 (Herbicidal rate of 5% or less (almost no effect))
- herbicidal effect rating, L: windgrass (windgrass [5]): 0 (Herbicidal rate of 5% or less (almost no effect))
- herbicidal effect grade, L: windgrass (windgrass [6]; [28]): 0 (Herbicidal rate of 5% or less (almost no effect))
- herbicidal effect on H (barnyard grass), rating 0-5 (barnyard grass [7]; 320 g/ha): 4 (Herbicidal rate of 70% or more and less than 90%)
- herbicidal effect grade, N: redroot pigweed (redroot pigweed [8]; [28]): 0 (Herbicidal rate of 5% or less (almost no effect))
- herbicidal effect grade, H: barnyard grass (barnyard grass [9]; [28]): 2 (Herbicidal rate of 20% or more and less than 40%)
- herbicidal effect rating, R: persian speedwell (persian speedwell [10]): 4 (Herbicidal rate of 70% or more and less than 90%)
- herbicidal effect grade, R: persian speedwell (persian speedwell [11]; [28]): 5 (Herbicidal rate of 90% or more (almost completely withered))
- herbicidal effect rating, F: southern crabgrass (southern crabgrass [12]): 0 (Herbicidal rate of 5% or less (almost no effect))
- herbicidal effect grade, G: green foxtail (green foxtail [13]; [28]): 1 (Herbicidal rate of 5% or more and less than 20%)
- herbicidal effect rating, N: redroot pigweed (redroot pigweed [14]): 0 (Herbicidal rate of 5% or less (almost no effect))
- herbicidal effect grade, M: velvetleaf (velvetleaf [15]; [28]): 4 (Herbicidal rate of 70% or more and less than 90%)
- herbicidal effect grade, O: lambsquarters (lambsquarters [16]; [28]): 0 (Herbicidal rate of 5% or less (almost no effect))
- herbicidal effect on D (Chinese sprangletop), rating 0-5 (Chinese sprangletop; 320 g/ha): 1 (Herbicidal rate of 5% or more and less than 20%)
- herbicidal effect rating, G: green foxtail (green foxtail [17]): 0 (Herbicidal rate of 5% or less (almost no effect))
- herbicidal effect grade, I: wild oat (wild oat [18]; [28]): 1 (Herbicidal rate of 5% or more and less than 20%)
- herbicidal effect rating, I: wild oat (wild oat [19]): 0 (Herbicidal rate of 5% or less (almost no effect))
- herbicidal effect rating, J: blackgrass (blackgrass [20]): 0 (Herbicidal rate of 5% or less (almost no effect))
- herbicidal effect grade, K: Italian ryegrass (Italian ryegrass [21]; [28]): 1 (Herbicidal rate of 5% or more and less than 20%)
- herbicidal effect rating, P: chickweed (chickweed [22]): 4 (Herbicidal rate of 70% or more and less than 90%)
- herbicidal effect grade, J: blackgrass (blackgrass [23]; [28]): 1 (Herbicidal rate of 5% or more and less than 20%)
- herbicidal effect rating, O: lambsquarters (lambsquarters [24]): 0 (Herbicidal rate of 5% or less (almost no effect))
- herbicidal effect rating, H: barnyard grass (barnyard grass [25]): 0 (Herbicidal rate of 5% or less (almost no effect))
